{
  "source": "paper PMC4914611",
  "about": "(Nature nanotechnology, 2013)",
  "target": "CM11CD746~1R~TET (Chara corallina, UniProt Q9SSU1)",
  "sequence (Q9SSU1 1-746)": "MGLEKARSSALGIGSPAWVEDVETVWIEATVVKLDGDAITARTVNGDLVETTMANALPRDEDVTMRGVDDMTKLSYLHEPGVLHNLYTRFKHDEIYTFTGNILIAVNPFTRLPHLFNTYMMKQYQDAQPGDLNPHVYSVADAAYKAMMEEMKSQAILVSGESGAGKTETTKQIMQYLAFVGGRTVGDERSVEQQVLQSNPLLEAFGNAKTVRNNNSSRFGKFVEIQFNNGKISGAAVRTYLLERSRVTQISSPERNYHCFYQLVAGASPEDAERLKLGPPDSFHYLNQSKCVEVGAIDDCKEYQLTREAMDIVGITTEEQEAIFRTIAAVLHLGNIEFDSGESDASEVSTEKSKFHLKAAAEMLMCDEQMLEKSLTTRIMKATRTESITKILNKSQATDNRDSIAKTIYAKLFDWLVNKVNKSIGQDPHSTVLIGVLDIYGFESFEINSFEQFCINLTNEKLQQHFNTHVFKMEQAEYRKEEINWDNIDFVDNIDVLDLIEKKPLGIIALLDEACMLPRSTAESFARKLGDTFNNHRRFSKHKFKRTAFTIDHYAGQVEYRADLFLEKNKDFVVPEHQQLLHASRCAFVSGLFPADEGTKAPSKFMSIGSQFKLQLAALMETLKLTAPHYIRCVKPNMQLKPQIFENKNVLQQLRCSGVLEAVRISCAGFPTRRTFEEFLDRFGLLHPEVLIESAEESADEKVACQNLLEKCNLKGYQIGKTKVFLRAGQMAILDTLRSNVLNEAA",
  "conditions": "actin filaments; 25 mM imidazole, 25 mM KCl, 1 mM EGTA, 2 mM free Mg2+",
  "data": [
    {"compound": "Nc1ncnc2c1ncn2[C@@H]1O[C@H](COP(=O)(O)OP(=O)(O)OP(=O)(O)O)[C@@H](O)[C@H]1O", "note": "[ATP]", "values": [
      {"measurement": "single-molecule fluorescence tracking, run length and velocity vs [ATP]", "value": "velocities are shown (mean ± s.e.m.) as a function of [ATP]"}
    ]}
  ]
}
